# Reference: patent US20070082018A1, “Stabilized antimicrobial compositions and related methods of preparation” (priority 2005, published 2007)
# Columns and labels:
# [1] = Critical micelle concentration from surface tension (drop shape tensiometry); format: physicochemical; settings: for Critical micelle concentration (CMC): pure systems in water
# Experimental: The critical micelle concentration of the pure systems was determined by plotting surface tension values against the logarithm of the total surfactant concentration. In order to determine the values of the critical micelle concentration, two linear fits were used. The first line was fitted to interval of concentration characterized by linear decrease of the surface tension and the second one to the region of concentration with the nearly constant surface tension. The point in which the fitted lines cross corresponds to the value of the critical micelle concentration (CMC). Here, the CMC is reached at a Mirenat concentration 0.25% v/v. This corresponds to 1.65 mmol.L^−1 of lauric arginate, 4 times lower than the literature value. Accordingly, all experiments will be carried out at a concentration largely exceeding the found value: 5% v/v.
# Measurement of Surface Tension. A drop shape analysis tensiometer (Model DSA-G10 MK2, Kruss USA, Charlotte, N.C.) was used to determine surface tension of surfactant solutions (20.0±0.5° C.). The tensiometer determines the shape of pendant drops or bubbles through numerical analysis of the entire drop shape. The calculation of the interfacial tension from the drop shape is based on the Young-Laplace equation of capillarity and a detailed description can be found elsewhere (Dukhin, Kretschmer et al. 1995). Surface tension measurements were carried out at 20.0±0.5 ° C. To ensure accurate temperature control, an air bubble was formed at the inverted tip of a syringe that was submerged in the surfactant solution contained in a thermostatted cuvette. The syringe/cuvette system was positioned on an optical bench between the light source and a high-speed CCD camera. […] Samples were assumed to be equilibrated (the equilibrium dynamic interfacial tension DITeq) when measured values of DITeq remained unchanged for 30 minutes. […] Solution were equilibrated to 20° C. in a waterbath and density measured using a digital density meter (DMA 35N, Anton Paar GmbH, Graz, Austria). […]
# [2] = Effect of salts on stability of surfactant solutions, visual observation of precipitation; format: physicochemical; settings: aqueous solutions, 5 wt % LAE
# Experimental: Several experiments were conducted to examine the influence of salts on the stability of solutions containing Mirenat. The pH was not controlled here, as the buffer could mask the real behavior of the system. Still, it remained almost unchanged after the addition of salts. The added counterion (anion) contributed by the added electrolyte is assumed to be the same species as that contributed by the cationic surfactant, i.e. chloride ions Cl^−. Therefore, chloride salts, i.e. sodium chloride NaCl and calcium chloride CaCl2, were used. […] Precipitation occurred slowly, especially with low salt concentration where it could take up to 5 days. […] Almost every time precipitation took place, little or even no turbidity was noticeable. The results provided in Table 1 reflect qualitative visual observation.
# Materials and Solution Preparation. Concentrated Mirenat®-N solution (25% lauric arginate, 75% PEG) was obtained from A&B Ingredients and used without further purification. Polyoxyethylene 20 sorbitan monolaureate (Tween 20), solvents (HCl, NaOH, purity >99%) and NaCl (>99%) was obtained from Sigma Chemical (St. Louis, Mo.). All solutions were prepared using doubles distilled and deionized water. Micellar solutions were prepared by gently mixing surfactants (Tween and LAE) at appropriate concentrations with double distilled water. As needed, pH was adjusted using HCl and NaOH.
# [3] = Solution turbidity (absorbance at 600 nm) and precipitation versus pH on NaOH titration; format: physicochemical; settings: aqueous solutions, 5 wt % LAE, pH 2-13
# Experimental: The solution pH was increased stepwise by adding 0.5N NaOH and was recorded 2 min following each addition. It was plotted against the total amount of OH added for each of the solutions. Three minutes following each addition, a sub-sample was delivered via pipette into a cuvette for light absorption determination. […] However, this drastic change doesn't occur at the same hydroxide ions concentration for each of the different T20 concentrations. Indeed, it progressively shifts to the right of the graphic. Notice that beginning pH values are very close to each other for each solution. To the contrary, final pH values corresponding to the addition of 11 mmol OH^− are not the same and tend to decrease while the amount of T20 becomes higher. […]
# pH would be expected to have an effect on precipitation as it affects the concentration of background ions H^+ and OH^− in the medium. […] It has been assumed that the initial rate of change in absorbance in the dispersions is a qualitative measure of the precipitation rate. […]
# Solution Turbidity. Absorbance of solutions adjusted to pH or containing salts was measured by spectroscopy at a wavelength of 600 nm using a UV-Visible spectrophotometer (Spectronic 21D, Milton Roy, Rochester, N.Y.). […] The change in the of absorbance of solutions was used as an indirect measure to formation of larger particles an/or aggregates.
# Escherichia coli = settings: cited from earlier work
# Listeria monocytogenes = settings: cited from earlier work
molecule,measurement,setting,value
Polyoxyethylene 20 sorbitan monolaureate [T20],Critical micelle concentration (CMC),[1],0.3 % v/v
"CCCCCCCCCCCC(=O)N[C@@H](CCCNC(=N)N)C(=O)OCC.Cl [LAE, ethyl-N^alpha-dodecanoyl-L-arginate hydrochloride]",CaCl2 concentration at which precipitates form,[2],> 15 g/L
same,NaCl concentration at which precipitates form,[2],> 10 g/L
same,Critical micelle concentration (CMC) as lauric arginate,[1]; corresponds to Mirenat 0.25% v/v,1.65 mmol/L
same,Critical micelle concentration (CMC),[1],0.25 % v/v
same,pH at which precipitates form,[3],> 4.1
same,Minimum inhibitory concentration,Escherichia coli,less than 10 ppm
same,Minimum inhibitory concentration,Listeria monocytogenes,less than 10 ppm
